Reference: US10815230B2, “Casein kinase 1 delta inhibitor” (ELECTROPHORETICS LIMITED, priority 2015, dated 2020)

Columns and labels:
Experiment in all cases: KINOMEscan binding assay
Settings in all cases: read-out: % Ctrl @ 10000 nM
[1] = target: T1, YANK3 (Homo sapiens, UniProt Q86UX6)
T1 construct: purchased DiscoveRx (KINOMEscan, LeadHunter Discovery services)

[2] = target: EGFR (S752-I759del) (Homo sapiens, UniProt P00533, DEL752-759)
[3] = target: TAK1 (Homo sapiens, UniProt O43318)
[4] = target: JNK3 (Homo sapiens, UniProt P53779)
[5] = target: TAOK3 (Homo sapiens, UniProt Q9H2K8)
[6] = target: JNK1 (Homo sapiens, UniProt P45983)
[7] = target: EGFR (L858R, T790M) (Homo sapiens, UniProt P00533, L858R/T790M)
EGFR (L858R, T790M), sequence (P00533 25-1210 T790M/L858R): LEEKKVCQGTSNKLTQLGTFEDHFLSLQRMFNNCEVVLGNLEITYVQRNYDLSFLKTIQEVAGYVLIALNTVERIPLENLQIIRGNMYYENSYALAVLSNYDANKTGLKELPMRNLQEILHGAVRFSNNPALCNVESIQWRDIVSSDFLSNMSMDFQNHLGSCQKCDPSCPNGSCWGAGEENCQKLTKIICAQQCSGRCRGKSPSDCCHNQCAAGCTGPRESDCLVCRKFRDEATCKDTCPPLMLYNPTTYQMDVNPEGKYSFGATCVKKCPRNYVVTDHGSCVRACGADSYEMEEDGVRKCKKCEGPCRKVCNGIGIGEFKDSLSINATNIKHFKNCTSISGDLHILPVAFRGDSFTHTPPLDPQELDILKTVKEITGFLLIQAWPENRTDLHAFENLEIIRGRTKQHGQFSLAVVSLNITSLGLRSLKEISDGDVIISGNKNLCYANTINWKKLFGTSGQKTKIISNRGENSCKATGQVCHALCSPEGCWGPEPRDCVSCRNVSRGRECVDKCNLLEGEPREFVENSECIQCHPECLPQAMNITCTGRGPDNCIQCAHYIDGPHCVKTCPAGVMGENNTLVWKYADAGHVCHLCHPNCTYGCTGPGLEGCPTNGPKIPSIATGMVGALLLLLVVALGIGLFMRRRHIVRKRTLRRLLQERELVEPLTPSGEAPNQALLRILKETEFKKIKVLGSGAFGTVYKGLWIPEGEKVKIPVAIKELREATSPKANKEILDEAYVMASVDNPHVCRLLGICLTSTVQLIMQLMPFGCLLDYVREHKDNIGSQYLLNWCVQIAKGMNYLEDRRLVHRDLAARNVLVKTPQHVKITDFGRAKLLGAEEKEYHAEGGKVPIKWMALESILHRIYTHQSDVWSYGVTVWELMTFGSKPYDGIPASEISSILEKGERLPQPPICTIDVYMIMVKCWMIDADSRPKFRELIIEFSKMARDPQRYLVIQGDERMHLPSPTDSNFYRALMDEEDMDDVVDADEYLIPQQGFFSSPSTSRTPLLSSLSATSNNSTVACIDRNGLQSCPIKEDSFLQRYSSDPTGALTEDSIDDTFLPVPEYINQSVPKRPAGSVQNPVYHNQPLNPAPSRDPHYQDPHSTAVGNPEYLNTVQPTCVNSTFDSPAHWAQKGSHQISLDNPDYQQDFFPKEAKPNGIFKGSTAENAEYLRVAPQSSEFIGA

[8] = target: MKNK1 (Homo sapiens, UniProt Q9BUB5)
[9] = target: MST1R (Homo sapiens, UniProt Q04912)
[10] = target: CSNK1D (Homo sapiens, UniProt P48730)
[11] = target: GAK (Homo sapiens, UniProt O14976)
[12] = target: FGFR3 (Homo sapiens, UniProt P22607)
[13] = target: EPHA3 (Homo sapiens, UniProt P29320)
[14] = target: DAPK3 (Homo sapiens, UniProt O43293)
[15] = target: AMPK-alpha2 (Homo sapiens, UniProt P54646)
[16] = target: ERBB2 (Homo sapiens, UniProt P04626)
[17] = target: LYN (Homo sapiens, UniProt P07948)
[18] = target: PHKG2 (Homo sapiens, UniProt P15735)
[19] = target: PIK3CD (Homo sapiens, UniProt O00329)
[20] = target: AURKB (Homo sapiens, UniProt Q96GD4)
[21] = target: CAMK1D (Homo sapiens, UniProt Q8IU85)
[22] = target: RIOK3 (Homo sapiens, UniProt O14730)
[23] = target: PYK2 (Homo sapiens, UniProt Q14289)
PYK2, sequence (Q14289 whole entry): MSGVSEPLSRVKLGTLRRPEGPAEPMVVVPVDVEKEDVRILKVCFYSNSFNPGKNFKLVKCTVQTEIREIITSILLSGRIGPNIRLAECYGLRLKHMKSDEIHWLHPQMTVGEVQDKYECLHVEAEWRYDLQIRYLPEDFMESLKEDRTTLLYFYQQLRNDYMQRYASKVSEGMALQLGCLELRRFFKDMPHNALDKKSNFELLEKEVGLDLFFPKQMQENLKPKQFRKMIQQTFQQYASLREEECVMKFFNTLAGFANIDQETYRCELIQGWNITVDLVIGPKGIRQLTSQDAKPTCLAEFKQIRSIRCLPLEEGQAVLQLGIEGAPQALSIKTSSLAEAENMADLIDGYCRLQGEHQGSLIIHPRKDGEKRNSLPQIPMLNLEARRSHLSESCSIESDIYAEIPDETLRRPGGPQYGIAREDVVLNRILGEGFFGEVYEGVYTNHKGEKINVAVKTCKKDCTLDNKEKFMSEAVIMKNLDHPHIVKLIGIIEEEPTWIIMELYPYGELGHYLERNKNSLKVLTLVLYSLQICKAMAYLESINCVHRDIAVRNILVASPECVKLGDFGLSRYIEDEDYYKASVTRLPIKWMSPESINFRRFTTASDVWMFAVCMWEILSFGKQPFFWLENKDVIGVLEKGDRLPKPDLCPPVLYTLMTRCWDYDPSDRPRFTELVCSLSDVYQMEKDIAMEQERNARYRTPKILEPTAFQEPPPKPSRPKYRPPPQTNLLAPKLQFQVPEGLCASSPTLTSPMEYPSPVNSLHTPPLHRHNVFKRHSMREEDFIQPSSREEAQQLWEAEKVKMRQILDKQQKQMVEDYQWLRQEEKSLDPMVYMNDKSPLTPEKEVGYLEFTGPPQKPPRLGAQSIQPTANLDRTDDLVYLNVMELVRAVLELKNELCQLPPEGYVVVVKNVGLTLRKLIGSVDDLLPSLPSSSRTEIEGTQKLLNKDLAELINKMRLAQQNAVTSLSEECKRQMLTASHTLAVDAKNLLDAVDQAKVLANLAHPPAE

[24] = target: ERK2 (Homo sapiens, UniProt P28482)
[25] = target: BUB1 (Homo sapiens, UniProt O43683)
[26] = target: CDC2L5 (Homo sapiens, UniProt Q14004)
[27] = target: STK16 (Homo sapiens, UniProt O75716)
STK16, sequence (O75716 whole entry): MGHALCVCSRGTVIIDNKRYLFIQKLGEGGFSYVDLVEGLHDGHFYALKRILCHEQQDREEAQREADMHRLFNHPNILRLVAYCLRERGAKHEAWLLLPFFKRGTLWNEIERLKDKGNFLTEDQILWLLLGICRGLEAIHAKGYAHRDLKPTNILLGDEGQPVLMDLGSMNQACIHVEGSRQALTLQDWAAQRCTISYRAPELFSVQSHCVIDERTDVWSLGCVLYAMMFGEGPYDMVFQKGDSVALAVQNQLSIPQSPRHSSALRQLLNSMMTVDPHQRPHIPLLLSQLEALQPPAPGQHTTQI

[28] = target: RET (Homo sapiens, UniProt P07949)
[29] = target: MLK3 (Homo sapiens, UniProt Q16584)
[30] = target: MYLK4 (Homo sapiens, UniProt Q86YV6)
[31] = target: EPHA7 (Homo sapiens, UniProt Q15375)
[32] = target: ABL1 non-phosphorylated (Homo sapiens, UniProt P00519)
[33] = target: ABL2 (Homo sapiens, UniProt P42684)
[34] = target: RAF1 (Homo sapiens, UniProt P04049)
[35] = target: RPS6KA4 Kin.Dom.2-C-terminal (Homo sapiens, UniProt O75676)
[36] = target: IKK-alpha (Homo sapiens, UniProt O15111)
[37] = target: TRKA (Homo sapiens, UniProt P04629)
TRKA, sequence (P04629 33-796): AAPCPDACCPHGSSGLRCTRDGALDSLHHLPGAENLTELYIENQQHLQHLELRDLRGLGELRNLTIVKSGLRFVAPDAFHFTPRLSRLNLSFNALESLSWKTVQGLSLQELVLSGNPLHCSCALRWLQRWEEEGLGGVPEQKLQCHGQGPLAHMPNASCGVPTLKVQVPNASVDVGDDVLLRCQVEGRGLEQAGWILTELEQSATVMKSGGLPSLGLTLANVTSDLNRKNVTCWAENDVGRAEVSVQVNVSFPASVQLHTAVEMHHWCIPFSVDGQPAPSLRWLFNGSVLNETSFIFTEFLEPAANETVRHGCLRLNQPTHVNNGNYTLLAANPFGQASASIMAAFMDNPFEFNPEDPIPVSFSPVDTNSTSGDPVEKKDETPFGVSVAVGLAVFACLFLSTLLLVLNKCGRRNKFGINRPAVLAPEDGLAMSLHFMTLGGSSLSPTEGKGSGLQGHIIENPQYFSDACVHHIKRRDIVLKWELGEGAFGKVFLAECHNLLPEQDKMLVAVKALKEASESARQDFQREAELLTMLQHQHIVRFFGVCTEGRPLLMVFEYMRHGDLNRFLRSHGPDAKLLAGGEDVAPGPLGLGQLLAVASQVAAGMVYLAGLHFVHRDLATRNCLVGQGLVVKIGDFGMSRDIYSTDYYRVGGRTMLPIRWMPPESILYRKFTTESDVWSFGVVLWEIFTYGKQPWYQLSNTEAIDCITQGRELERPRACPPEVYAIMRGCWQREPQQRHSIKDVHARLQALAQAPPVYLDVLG

[38] = target: CSNK2A2 (Homo sapiens, UniProt P19784)
[39] = target: SGK (Homo sapiens, UniProt O00141)
SGK, sequence (O00141 whole entry): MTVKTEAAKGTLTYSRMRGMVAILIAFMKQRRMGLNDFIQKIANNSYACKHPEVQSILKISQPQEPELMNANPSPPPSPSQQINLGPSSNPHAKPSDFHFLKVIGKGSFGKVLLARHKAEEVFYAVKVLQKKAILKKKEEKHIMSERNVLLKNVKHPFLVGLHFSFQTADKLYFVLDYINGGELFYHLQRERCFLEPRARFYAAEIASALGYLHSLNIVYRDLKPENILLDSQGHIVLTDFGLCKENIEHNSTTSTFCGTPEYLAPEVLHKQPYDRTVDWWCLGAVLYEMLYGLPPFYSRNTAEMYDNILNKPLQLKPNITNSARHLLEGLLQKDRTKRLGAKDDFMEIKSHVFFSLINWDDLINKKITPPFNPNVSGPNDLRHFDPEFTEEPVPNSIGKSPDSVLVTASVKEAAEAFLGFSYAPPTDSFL

[40] = target: T2, LKB1 (Homo sapiens, UniProt Q15831)
T2 construct: T7 phage fusion (most assays) or DNA label after HEK293 expression; purchased DiscoveRx (KINOMEscan, LeadHunter Discovery services); host or cells: T7 phage in E. coli (BL21-derived) or HEK293

[41] = target: RIPK4 (Homo sapiens, UniProt P57078)

EGFR (S752-I759del), sequence (P00533 with tags, fused parts or gaps DEL752-759): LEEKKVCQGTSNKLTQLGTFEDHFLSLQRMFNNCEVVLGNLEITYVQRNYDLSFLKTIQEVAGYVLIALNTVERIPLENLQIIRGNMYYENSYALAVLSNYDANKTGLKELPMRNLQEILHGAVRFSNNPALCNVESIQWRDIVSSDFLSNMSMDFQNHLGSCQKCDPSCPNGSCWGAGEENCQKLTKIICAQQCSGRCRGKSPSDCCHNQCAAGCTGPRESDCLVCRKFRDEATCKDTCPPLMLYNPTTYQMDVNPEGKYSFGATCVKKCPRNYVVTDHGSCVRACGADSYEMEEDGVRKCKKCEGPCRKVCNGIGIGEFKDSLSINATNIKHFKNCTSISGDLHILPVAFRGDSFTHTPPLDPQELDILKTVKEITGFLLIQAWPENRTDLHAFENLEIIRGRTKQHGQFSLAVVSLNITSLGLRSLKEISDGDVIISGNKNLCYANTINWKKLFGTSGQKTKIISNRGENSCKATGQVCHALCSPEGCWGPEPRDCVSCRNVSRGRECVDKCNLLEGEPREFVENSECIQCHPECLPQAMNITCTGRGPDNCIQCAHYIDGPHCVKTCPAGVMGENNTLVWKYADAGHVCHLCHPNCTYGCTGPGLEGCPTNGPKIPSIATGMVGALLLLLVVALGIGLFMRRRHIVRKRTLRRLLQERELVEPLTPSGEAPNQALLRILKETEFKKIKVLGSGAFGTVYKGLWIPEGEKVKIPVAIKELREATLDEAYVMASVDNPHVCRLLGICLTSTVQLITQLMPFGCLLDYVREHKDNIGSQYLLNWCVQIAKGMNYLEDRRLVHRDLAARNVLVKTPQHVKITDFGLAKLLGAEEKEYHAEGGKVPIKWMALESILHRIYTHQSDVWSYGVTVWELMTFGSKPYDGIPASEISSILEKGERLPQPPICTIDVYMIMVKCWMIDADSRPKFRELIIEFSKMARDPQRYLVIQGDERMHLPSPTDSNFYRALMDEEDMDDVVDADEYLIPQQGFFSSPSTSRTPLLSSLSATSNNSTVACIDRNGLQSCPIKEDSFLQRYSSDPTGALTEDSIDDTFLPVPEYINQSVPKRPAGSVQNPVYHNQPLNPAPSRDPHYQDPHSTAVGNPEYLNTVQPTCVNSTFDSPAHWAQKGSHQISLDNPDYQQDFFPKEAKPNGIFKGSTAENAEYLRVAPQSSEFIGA

Nc1ncc(-c2nc3ccccc3o2)c(-c2ccncc2)n1 [Comparative Compound 324, 5-(1,3-benzoxazol-2-yl)-4-(pyridine-4-yl)pyrimidin-2-amine]
remaining binding at 10 µM [1]: 97%
remaining binding at 10 µM [2]: 84%
remaining binding at 10 µM [3]: 81%
remaining binding at 10 µM [4]: 6%
remaining binding at 10 µM [5]: 91%
remaining binding at 10 µM [6]: 52%
remaining binding at 10 µM [7]: 51%
remaining binding at 10 µM [8]: 96%
remaining binding at 10 µM [9]: 85%
remaining binding at 10 µM [10]: 3.8%
remaining binding at 10 µM [11]: 87%
remaining binding at 10 µM [12]: 95%
remaining binding at 10 µM [13]: 86%
remaining binding at 10 µM [14]: 100%
remaining binding at 10 µM [15]: 100%
remaining binding at 10 µM [16]: 99%
remaining binding at 10 µM [17]: 99%
remaining binding at 10 µM [18]: 100%
remaining binding at 10 µM [19]: 100%
remaining binding at 10 µM [20]: 96%
remaining binding at 10 µM [21]: 96%
remaining binding at 10 µM [22]: 57%
remaining binding at 10 µM [23]: 100%
remaining binding at 10 µM [24]: 99%
remaining binding at 10 µM [25]: 44%
remaining binding at 10 µM [26]: 93%
remaining binding at 10 µM [27]: 89%
remaining binding at 10 µM [28]: 94%
remaining binding at 10 µM [29]: 83%
remaining binding at 10 µM [30]: 98%
remaining binding at 10 µM [31]: 87%
remaining binding at 10 µM [32]: 81%
remaining binding at 10 µM [33]: 85%
remaining binding at 10 µM [34]: 100%
remaining binding at 10 µM [35]: 100%
remaining binding at 10 µM [36]: 92%
remaining binding at 10 µM [37]: 77%
remaining binding at 10 µM [38]: 79%
remaining binding at 10 µM [39]: 100%
remaining binding at 10 µM [40]: 85%
remaining binding at 10 µM [41]: 65%

CNc1c(C(N)=O)c2ccccn2c1C(=O)c1ccc(F)cc1 [Compound A, 2-methyl-amino-3-[(4-fluorophenyl)carbonyl]indolizine-1-carboxamide]
remaining binding at 10 µM [1]: 100%
remaining binding at 10 µM [2]: 18%
remaining binding at 10 µM [3]: 56%
remaining binding at 10 µM [4]: 48%
remaining binding at 10 µM [5]: 93%
remaining binding at 10 µM [6]: 45%
remaining binding at 10 µM [7]: 88%
remaining binding at 10 µM [8]: 100%
remaining binding at 10 µM [9]: 81%
remaining binding at 10 µM [10]: 1.4%
remaining binding at 10 µM [11]: 10%
remaining binding at 10 µM [12]: 90%
remaining binding at 10 µM [13]: 68%
remaining binding at 10 µM [14]: 86%
remaining binding at 10 µM [15]: 99%
remaining binding at 10 µM [16]: 49%
remaining binding at 10 µM [17]: 54%
remaining binding at 10 µM [18]: 91%
remaining binding at 10 µM [19]: 100%
remaining binding at 10 µM [20]: 86%
remaining binding at 10 µM [21]: 97%
remaining binding at 10 µM [22]: 72%
remaining binding at 10 µM [23]: 100%
remaining binding at 10 µM [24]: 78%
remaining binding at 10 µM [25]: 44%
remaining binding at 10 µM [26]: 89%
remaining binding at 10 µM [27]: 81%
remaining binding at 10 µM [28]: 80%
remaining binding at 10 µM [29]: 83%
remaining binding at 10 µM [30]: 43%
remaining binding at 10 µM [31]: 82%
remaining binding at 10 µM [32]: 42%
remaining binding at 10 µM [33]: 68%
remaining binding at 10 µM [34]: 95%
remaining binding at 10 µM [35]: 100%
remaining binding at 10 µM [36]: 96%
remaining binding at 10 µM [37]: 86%
remaining binding at 10 µM [38]: 93%
remaining binding at 10 µM [39]: 100%
remaining binding at 10 µM [40]: 85%
remaining binding at 10 µM [41]: 78%
